Assay results reported in paper PMC6154694, “Absorption, Metabolic Stability, and Pharmacokinetics of Ginger Phytochemicals” (Molecules : A Journal of Synthetic Chemistry and Natural …, 2017).

Columns and labels:
[1] = Solubility and stability in simulated gastric fluid (SGF); format: in vitro ADME; conditions: pH 1.2, 37 °C, n = 2
Experimental: SGF and SIF were prepared as per USP method. Briefly, SGF was prepared by adding 2 g of sodium chloride and 3.2 g of pepsin with water and pH was adjusted to 1.2 ± 0.1 using hydrochloric acid (7 mL) and volume made up to 1 L. SIF was prepared by dissolving 6.8 g monobasic potassium phosphate and 10 g pancreatin in Milli-Q water (Millipore, Billerica, MA, USA). pH was adjusted to 6.8 ± 0.1 with sodium hydroxide solution and volume was made upto 1 L. Reactions were initiated by spiking DMSO stock solutions of GE phenolics 10 μL into 1990 μL of SGF and SIF incubated at 37 °C for 10 min. Samples (200 μL) were withdrawn at 0, 15, 30, and 60 min for SGF and at 0, 30, 60, and 120 min for SIF and quenched with 200 μL acetonitrile containing internal standard.

[2] = Mouse pharmacokinetic study of oral GE with and without ketoconazole, plasma with and without β-glucuronidase treatment; format: in vivo, male mice (C57BL6J); conditions: for Concentration Ratio (Total/Free) of GE Phenolics: GE administered group; for Concentration Ratio (Total/Free) of GE Phenolics / concentration at 0 h / concentration at 0.087 h / concentration at 0.167 h / concentration at 0.25 h / concentration at 0.5 h / concentration at 1 h / concentration at 2 h / concentration at 3 h / concentration at 4 h / concentration at 6 h / concentration at 8 h / concentration at 12 h: mouse plasma; for AUC(0-t) / Cmax / Tmax / concentration at 0 h / concentration at 0.087 h / concentration at 0.167 h / concentration at 0.25 h / concentration at 0.5 h / concentration at 1 h / concentration at 2 h / concentration at 3 h / concentration at 4 h / concentration at 6 h / concentration at 8 h / concentration at 12 h: male, C57BL6J; for AUC(0-t) / Cmax / Tmax: mouse, plasma, po, 250 mg/kg
Experimental: A solution formulation of GE was prepared by using 5% ethanol, 5% Tween 80, 40% polyethylene glycol, and 50% corn oil. The dose volume was 10 mL/kg and the dose administered was 250 mg/kg GE.
Pharmacokinetic study in male mice (C57BL6J, Harlan Laboratories, Indianapolis, IN, USA) was run with 36 animals in each group at a GE dose of 250 mg/kg with a dose volume of 10 mL/kg. One group was given GE alone and in the second group GE was co-administered with KTZ (50 mg/kg). A terminal sampling design was used to collect blood samples at 0 (pre-dose), 0.08, 0.16, 0.25, 0.5, 1, 2, 3, 4, 6, 8, and 12 h. At each time, 1 mL of blood was collected in ethylenediaminetetraacetic acid di-potassium salt (K2EDTA) tubes (BD Biosciences, Franklin Lakes, NJ, USA). Plasma was separated by centrifugation of samples at 4000 rpm for 10 min and stored below −60 °C till bioanalysis. All experiments were performed with approval from the Institutional Animal Care and Use Committee (IACUC, approval code: A14031). All animals were acclimatized for five days before dosing in the experimental area. Food and water was provided ad libitum throughout the study period. Animals were marked and housed (three per cage, n = 36 per group) in polypropylene cages and maintained in controlled environmental conditions with 12 h light and dark cycles. The temperature and humidity of the room was maintained between 22 ± 3 °C and 30% to 50%, respectively, and approximately 10–12 fresh air change cycles per hour.
To confirm the presence of GE glucuronide conjugates, plasma (100 μL) was treated with βgd (20 μL, 500 units) and incubated at 37 °C for 1 h. Each sample was analyzed twice with and without β-gd treatment. Samples without gde treatment were diluted with 20 μL of buffer. Total (conjugated + free) and free ginger phenolics data were reported following bioanalysis.
All in vitro and in vivo samples were processed by protein precipitation method. An aliquot (100 μL) of the sample was spiked with 200 μL of acetonitrile containing dihydrocapsaicin as internal standard (IS) and vortex mixed for 3 min. The tubes were centrifuged at 12,000 rpm for 10 min and an aliquot of supernatant was transferred into autosampler vials for analysis. The stock solutions of 6G, 8G, 10G, and 6S were prepared in ACN/water (70:30) at 1 mg/mL. A calibration curve (CC) range of 2–2000 ng/mL was employed for the quantification of analytes and IS concentration was 150 ng/mL for each analysis. The CC consisted of blank, blank with IS and seven non-zero calibration standards. The calibration standards were within ±15% of the nominal concentration and lower limit of quantification was within ±20% of nominal. All samples were analyzed using liquid chromatography tandem mass spectrometry (LC-MS/MS) method (Agilent 6410 series, Santa Clara, CA, USA). A positive ionization mode with multiple reaction monitoring (MRM, m/z Q1/Q3) of 6G (m/z 277.1/177.1, retention time (RT) 2.0 min), 8G (m/z 305.1/177.1, RT 4.0 min), 10G (m/z 333.1/177.1, RT 7.7 min), 6S (m/z 277.1/137.1, RT 5.1 min), and IS (m/z 308.2/137.1, RT 3.4 min) was employed. The ion spray voltage was set at 3500 V, ionization temperature was set to 300 °C and drying gas flow rate was 10 L/min. Data acquisition and quantitation were performed using Mass Hunter software (Agilent Technologies, Wilmington, DE, USA). Separation was achieved using HP1100 series LC (Agilent Technologies) with an Agilent Zorbax reversed-phase (SB-C18, 2.1 × 50 mm, 5.0 μm) column. A gradient method was employed to separate the individual GE phenolics using mobile phase A (0.1% formic acid in water) and mobile phase B (Acetonitrile). The gradient elution method with 50% B at 0 min, 90% B at 5 min, held for 2.1 min, back to 50% B at 7.1 min with a flow rate of 0.2 mL/min. An injection volume of 2 μL was used for analysis. […]

[3] = 250 mg/kg GE + 50 mg/kg KTZ oral, +KTZ −βgd

CCCCC[C@H](O)CC(=O)CCc1ccc(O)c(OC)c1 [6G, 6-gingerol]
half-life at 10 µM [1]: > 60 min
AUClast Ratio ([2]; +KTZ +βgd, reference GE group co-administered with KTZ untreated with βgd): 63
AUClast Ratio ([2]; +KTZ +βgd, reference GE group untreated with βgd): 498
AUClast Ratio ([2]; +KTZ −βgd, reference GE group untreated with βgd): 8
Concentration Ratio (Total/Free) of GE Phenolics ([2]; 0 h): 0
Concentration Ratio (Total/Free) of GE Phenolics ([2]; 0.087 h): 0
Concentration Ratio (Total/Free) of GE Phenolics ([2]; 0.167 h): 0
Concentration Ratio (Total/Free) of GE Phenolics ([2]; 0.25 h): 3659
Concentration Ratio (Total/Free) of GE Phenolics ([2]; 0.5 h): 8723
Concentration Ratio (Total/Free) of GE Phenolics ([2]; 1 h): 0
Concentration Ratio (Total/Free) of GE Phenolics ([2]; 2 h): 53
Concentration Ratio (Total/Free) of GE Phenolics ([2]; 3 h): 290
Concentration Ratio (Total/Free) of GE Phenolics ([2]; 4 h): 491
Concentration Ratio (Total/Free) of GE Phenolics ([2]; 6 h): 391
Concentration Ratio (Total/Free) of GE Phenolics ([2]; 8 h): 0
Concentration Ratio (Total/Free) of GE Phenolics ([2]; 12 h): 0
AUC(0-t) ([2]; 250 mg/kg GE oral, −βgd): 37.7 ng·h/mL
Cmax ([2]; 250 mg/kg GE oral, −βgd): 27.2 ng/mL
Tmax ([2]; 250 mg/kg GE oral, −βgd): 2 h
AUC(0-t) [2, 3]: 300 ng·h/mL
Cmax [2, 3]: 257 ng/mL
Tmax [2, 3]: 0.5 h
concentration at 0 h ([2]; 250 mg/kg GE oral, 0 h, −βgd): 0 ng/mL
concentration at 0.087 h ([2]; 250 mg/kg GE oral, 0.087 h, −βgd): 0 ng/mL
concentration at 0.167 h ([2]; 250 mg/kg GE oral, 0.167 h, −βgd): 0.11 ± 0.08 ng/mL
concentration at 0.25 h ([2]; 250 mg/kg GE oral, 0.25 h, −βgd): 2.25 ± 1.73 ng/mL
concentration at 0.5 h ([2]; 250 mg/kg GE oral, 0.5 h, −βgd): 1.79 ± 1.82 ng/mL
concentration at 1 h ([2]; 250 mg/kg GE oral, 1 h, −βgd): 1.04 ± 0.79 ng/mL
concentration at 2 h ([2]; 250 mg/kg GE oral, 2 h, −βgd): 27.2 ± 38.4 ng/mL
concentration at 3 h ([2]; 250 mg/kg GE oral, 3 h, −βgd): 2.45 ± 1.73 ng/mL
concentration at 4 h ([2]; 250 mg/kg GE oral, 4 h, −βgd): 0.82 ± 1.16 ng/mL
concentration at 6 h ([2]; 250 mg/kg GE oral, 6 h, −βgd): 3.22 ± 4.03 ng/mL
concentration at 8 h ([2]; 250 mg/kg GE oral, 8 h, −βgd): 0.77 ± 0.57 ng/mL
concentration at 12 h ([2]; 250 mg/kg GE oral, 12 h, −βgd): 0.33 ± 0.44 ng/mL
concentration at 0 h ([2]; 250 mg/kg GE with 50 mg/kg ketoconazole oral, 0 h, −βgd): 0 ng/mL
concentration at 0.087 h ([2]; 250 mg/kg GE with 50 mg/kg ketoconazole oral, 0.087 h, −βgd): 0.31 ± 0.44 ng/mL
concentration at 0.167 h ([2]; 250 mg/kg GE with 50 mg/kg ketoconazole oral, 0.167 h, −βgd): 5.71 ± 4.25 ng/mL
concentration at 0.25 h ([2]; 250 mg/kg GE with 50 mg/kg ketoconazole oral, 0.25 h, −βgd): 35.9 ± 44.5 ng/mL
concentration at 0.5 h ([2]; 250 mg/kg GE with 50 mg/kg ketoconazole oral, 0.5 h, −βgd): 37900 ng/mL
concentration at 1 h ([2]; 250 mg/kg GE with 50 mg/kg ketoconazole oral, 1 h, −βgd): 104 ± 110 ng/mL
concentration at 2 h ([2]; 250 mg/kg GE with 50 mg/kg ketoconazole oral, 2 h, −βgd): 70900 ng/mL
concentration at 3 h ([2]; 250 mg/kg GE with 50 mg/kg ketoconazole oral, 3 h, −βgd): 65.2 ± 54.3 ng/mL
concentration at 4 h ([2]; 250 mg/kg GE with 50 mg/kg ketoconazole oral, 4 h, −βgd): 5.87 ± 1.18 ng/mL
concentration at 6 h ([2]; 250 mg/kg GE with 50 mg/kg ketoconazole oral, 6 h, −βgd): 1.09 ± 0.93 ng/mL
concentration at 8 h ([2]; 250 mg/kg GE with 50 mg/kg ketoconazole oral, 8 h, −βgd): 10.4 ± 11.1 ng/mL
concentration at 12 h ([2]; 250 mg/kg GE with 50 mg/kg ketoconazole oral, 12 h, −βgd): 0.74 ± 1.05 ng/mL
